In patent US20220133702A1, “CYSTIC FIBROSIS TRANSMEMBRANE CONDUCTANCE REGULATOR MODULATORS FOR TREATING AUTOSOMAL DOMINANT POLYCYSTIC KIDNEY DISEASE” (The Johns Hopkins University, priority 2020, published 2022):

What was measured:
NHE3 in PN cells = assay: NHE3 activity; assay type: cell-based, mouse; details: treated PN cells vs PN cells
Experimental: FIG. 15A and FIG. 15B show NHE3 activity in PN and PH cells (FIG. 15A and FIG. 15B) and NHE3 activity in PN cells treated with VX-809.
FIG. 16A, FIG. 16B, and FIG. 16C show NHE activity in PN/PH cells or PN cells treated with VX-809;
The expression and activity of […] were evaluated. Specifically, NHE3 expression was evaluated in PN cells that were treated with VX-809. […] was also studied in PN, PH, and PN cells treated with VX-809. […] Next, NHE3 activity was evaluated in PN/PH cells or PN cells treated with VX-809. NHE3 activity was increased in PN cells treated with VX-809, as compared to PN cells (FIG. 16A). NHE3 activity was higher in control PH cells than in PN cells (FIG. 16B). […] NHE3 activity was increased in both VX-809 treated PN cells and control PH cells, as compared to control PN cells (FIG. 16C).

PN cells = assay: BrdU cell proliferation assay; assay type: cell-based, mouse; details: 1 and 10 μM, vs DMSO-treated cells
Excerpt: FIG. 3A, FIG. 3B, FIG. 3C, and FIG. 3D show cell proliferation is reduced by VX-809. (FIG. 3A-FIG. 3B) Proliferation in kidneys of Pkd1^fl/fl; Pax8^rtTA; TetO-cre mice. Representative images of Ki67 (a cellular marker for proliferation) staining of PN21 kidney sections from DMSO- and VX-809-treated mice. Arrows indicate Ki67-positive cells. Pictures were acquired with a Zeiss microscope equipped with 20× objective. (FIG. 3C) Summary data for Ki67-positive cells. Columns represent averages±standard errors of DMSO (vehicle)-treated (n=3) and VX-809-treated (n=3) mice. Statistical analysis was performed using a two-tailed Student's t test. (FIG. 3D) Proliferation in PN cells. PN cells were treated with VX-809 or DMSO). The bromodeoxyuridine (BrdU) concentration in the cells was measured by using a BrdU cell proliferation assay kit (Millipore Sigma#2750) according to the manufacturer's protocol. Columns represent averages±SEs of the OD of BrdU at 450/550 […]. Data were analyzed using Student's t-test, with n=5-7. Methods were described previously (62). *P>0.05; **P<0.01;
A hallmark of the cysts in ADPKD is an increase in proliferation in response to cAMP. Therefore, it was determined whether VX-809 would affect proliferation.

cAMP in PN cells = assay: Cyclic AMP enzyme immunoassay in cells; assay type: cell-based, mouse
Experimental: FIG. 4A, FIG. 4B, FIG. 4C, FIG. 4D, and FIG. 4E show (FIG. 4A-FIG. 4B) cAMP levels are reduced by VX-809. (FIG. 4A) cAMP levels in mouse tissue were reduced by VX-809. The kidney samples (n=6) analyzed were taken from those depicted in FIG. 1. (FIG. 4B) Confluent PN and PH cells were treated with VX-809 (10 μM) or DMSO for 16 hand then treated with forskolin (100 μM) for 30 min before the cells were harvested for the assay. Columns represent means±SEM. Statistical analysis was performed using a two-tailed Student's t-test. Each set of data is from three individual wells; Note that resting cAMP is greater in PN vs PH cells as previously shown (25). Also note that forskolin caused a large increase in cAMP. A smaller increase occurred with IBMX. However, the increase induced by forskolin alone was similar to that by IBMX plus forskolin. […] (FIG. 4C, FIG. 4D, and FIG. 4E) Adenylyl cyclase expression. (FIG. 4C) Western blot showing the expression of adenylyl cyclase (AC) 6 and AC3 in treated and control PN cells. (FIG. 4D-FIG. 4E) Columns represent means±SEM of the AC3 and AC6 expression. The data were analyzed by non-parametric t-test. The experiment was repeated four times. For all graphs, *P<0.05, **P<0.01, and ***P<0.001;
It has been shown previously in both animal and cell culture models of ADPKD that cells lacking functional PC1 have elevated cAMP levels when compared to normal. To assess the effect of CFTR correctors, cAMP activity was measured in PC1 conditional knockout mouse kidneys and in PN cells that were either left untreated or treated with VX-809. […] Cells were treated with forskolin, which increased cAMP levels drastically (FIG. 4B). It should be noted that VX-809 reduced the forskolin-induced increase in cAMP, indicating a direct action of VX-809 on adenylyl cyclase activity. […] Treating PN cells with forskolin or IBMX (FIG. 4B) increased the cAMP activity by approximately 10-fold.
Cyclic AMP assay. Confluent cells were treated with VX-809 (10 μM) or DMSO for 16 h before being harvested for assay. Cyclic AMP levels were measured with a direct cAMP Enzyme Immunoassay Kit (Sigma, #CA200) according to the manufacturer's protocol. The results are expressed as pmole/ml. Statistical analysis was performed using a two-tailed Student's t-test.

GRP78, Ero1, and GADD153 = assay: Western blot of ER stress markers in kidney tissue lysates; assay type: in vivo, mouse; details: 30 mg/kg BW, cyst-induced mice
Experimental: FIG. 11A. FIG. 11B, FIG. 11C, FIG. 11D, and FIG. 11E show expression of ER stress markers GRP78, Ero1, and GADD in Pkd1-1 mice treated with VX-809. (FIG. 11A & FIG. 11D) Representative Western blot images of GRP78, ErO1, and GADD in lysates of kidney tissue from no cyst induced (ND), cyst induced with doxycycline (D) or cyst induced pkd−/− mice treated with VX-809 (D+VX-809) 30 mg/kg BW. (FIG. 11B, FIG. 11C and FIG. 11E) Columns represent averages±standard errors of GRP78, Ero1, and GADD153 expression. Data were analyzed by non-parametric t-test. n=4 for each treated and control groups. Black lines between lanes represent representative experiments from the same gel but loaded in different lanes. **P<0.01, ***P<0.001;
Given that VX-809 alters an ensemble of Hsps, it was evaluated whether VX-809 alters proteins associated with ER stress. To address this question, the levels of three ER stress-associated proteins were measured, 78-kDa glucose-regulated protein (GRP78), ER oxidoreductin 1 (Ero1) and DNA damage-inducible protein 3 (GADD153), also known as C/EBP homologous protein (CHOP) (37). The results are depicted in FIG. 11 show no changes in GRP78 or Ero1 in response to VX-809.

Cc1ccc(NC(=O)C2(c3ccc4c(c3)OC(F)(F)O4)CC2)nc1-c1cccc(C(=O)O)c1 [VX-809, lumacaftor]
NHE3 activity (NHE3 in PN cells): significantly increased | cell proliferation (BrdU) (PN cells): significantly inhibit cell proliferation | resting cAMP levels (cAMP in PN cells; 10 μM, 16 h, PN cells, no forskolin): significantly decreased | forskolin-induced increase in cAMP (cAMP in PN cells; 10 μM, 16 h, then forskolin 100 μM 30 min): reduced | forskolin- or IBMX-induced increases in adenylyl cyclase activity (cAMP in PN cells; forskolin in combination with IBMX (data bars 5 and 9, FIG. 4B)): did not affect | phosphodiesterase activity (cAMP in PN cells; inferred from forskolin/IBMX experiment): does not affect | Ero1 level (GRP78, Ero1, and GADD153): no changes | GADD153 level (GRP78, Ero1, and GADD153): equally dramatic reduction | GRP78 level (GRP78, Ero1, and GADD153): no changes
